# Data as given in the supplement of paper PMC10307832.
# Assays:
# Test in all cases: relative viability (nuclei count vs DMSO), 5 days (fraction); higher = more cells survive
# [1] = compound: CC(C)(C)c1nc(-c2cccc(NS(=O)(=O)c3c(F)cccc3F)c2F)c(-c2ccnc(N)n2)s1 [Dabrafenib]
# Method in brief: (§1)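 MetaXpress counted nuclei in 4× images of lung cancer cell lines that had been fixed, permeabilised and Hoechst-stained in one step. Before that, cells in 1536-well plates were kept overnight at 37 °C, pinned with five √10-spaced library-drug doses on vehicle-anchored plates, and cultured 5 days without medium change. Viability takes treated-well nuclei over vehicle-well nuclei and uses the median across plates. Plates were accepted only at control CV below 25% and at least one doubling.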
# [2] = compound: NC(=O)c1ccc(N(C(N)=O)c2c(F)cccc2F)nc1-c1ccc(F)cc1F [VX-702]
# Method in brief: as §1
# [3] = compound: NC(=O)c1ccc(N(C(N)=O)c2c(F)cccc2F)nc1-c1ccc(F)cc1F [VX-702] + CC(=O)c1c(C)c2cnc(Nc3ccc(N4CCNCC4)cn3)nc2n(C2CCCC2)c1=O [Palbociclib] (partner 0.5 µM)
# Method in brief: (§2)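 Medians of duplicate plates are given as relative viability. That measure is the nuclei count in treated wells divided by the count in vehicle wells. Counts were taken on 4× images of lung cancer cell lines in 1536-well plates, 5 days after pin-tool dosing the day after seeding with one drug alone or a fixed anchor-drug dose plus five library-drug doses (not always all listed) in √10 steps.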
# [4] = compound: NC(=O)c1ccc(N(C(N)=O)c2c(F)cccc2F)nc1-c1ccc(F)cc1F [VX-702] + COc1cc2c(Oc3ccc(NC(=O)C4(C(=O)Nc5ccc(F)cc5)CC4)cc3F)ccnc2cc1OCCCN1CCOCC1 [Foretinib] (partner 0.25 µM)
# Method in brief: as §2
# [5] = compound: CC(C)(C)c1nc(-c2cccc(NS(=O)(=O)c3c(F)cccc3F)c2F)c(-c2ccnc(N)n2)s1 [Dabrafenib] + Nc1ncn([C@H]2C[C@H](O)[C@@H](CO)O2)c(=O)n1 [Decitabine] (partner 2 µM)
# Method in brief: as §2
cell line,measurement,setting,value
SW 900,relative viability,[1]; 0.009487 µM,0.84
same,relative viability,[1]; 0.03 µM,0.589
same,relative viability,[1]; 0.09487 µM,0.665
same,relative viability,[1]; 0.3 µM,1.02
same,relative viability,[2]; 0.02 µM,0.885
same,relative viability,[2]; 0.2 µM,0.82
same,relative viability,[2]; 0.6325 µM,0.775
same,relative viability,[2]; 2 µM,1.02
same,relative viability,[3]; first compound 0.02 µM,0.577
same,relative viability,[3]; first compound 0.2 µM,0.566
same,relative viability,[3]; first compound 0.6325 µM,0.575
same,relative viability,[3]; first compound 2 µM,0.539
same,relative viability,[4]; first compound 0.02 µM,0.726
same,relative viability,[4]; first compound 0.2 µM,1.02
same,relative viability,[4]; first compound 0.6325 µM,0.9
same,relative viability,[4]; first compound 2 µM,0.958
same,relative viability,[5]; first compound 0.009487 µM,0.35
same,relative viability,[5]; first compound 0.09487 µM,0.486
same,relative viability,[5]; first compound 0.3 µM,0.394
